Assay results: patent publication US20260256919A1, “BIOENHANCERS” (priority 2022, published 2026)
Where two headings read alike, the source gives them in different places.

Key:
[1] = molecular target: T1, CYP2B6 (Homo sapiens, UniProt P20813); details: microsomes
T1 sequence (P20813 1-491): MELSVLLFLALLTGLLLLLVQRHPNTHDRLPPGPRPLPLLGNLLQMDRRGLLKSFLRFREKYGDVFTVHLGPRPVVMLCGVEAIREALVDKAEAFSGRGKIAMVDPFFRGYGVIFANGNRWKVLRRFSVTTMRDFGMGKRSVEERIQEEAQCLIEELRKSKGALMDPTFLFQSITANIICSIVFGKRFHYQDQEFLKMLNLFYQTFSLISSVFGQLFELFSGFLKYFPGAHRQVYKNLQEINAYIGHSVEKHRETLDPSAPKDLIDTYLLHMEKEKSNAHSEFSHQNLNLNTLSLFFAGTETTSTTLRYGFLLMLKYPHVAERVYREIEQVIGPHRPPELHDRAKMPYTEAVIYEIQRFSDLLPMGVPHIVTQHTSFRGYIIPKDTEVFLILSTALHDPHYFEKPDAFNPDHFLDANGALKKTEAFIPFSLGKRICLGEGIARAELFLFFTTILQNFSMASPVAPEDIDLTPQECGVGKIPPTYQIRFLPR

[2] = molecular target: T2, CYP1A2 (Homo sapiens, UniProt P05177); details: microsomes; for CYP1A2 activity expressed as % Vehicle Control: human, 10 min, pH 7.4
T2 sequence (P05177 1-516): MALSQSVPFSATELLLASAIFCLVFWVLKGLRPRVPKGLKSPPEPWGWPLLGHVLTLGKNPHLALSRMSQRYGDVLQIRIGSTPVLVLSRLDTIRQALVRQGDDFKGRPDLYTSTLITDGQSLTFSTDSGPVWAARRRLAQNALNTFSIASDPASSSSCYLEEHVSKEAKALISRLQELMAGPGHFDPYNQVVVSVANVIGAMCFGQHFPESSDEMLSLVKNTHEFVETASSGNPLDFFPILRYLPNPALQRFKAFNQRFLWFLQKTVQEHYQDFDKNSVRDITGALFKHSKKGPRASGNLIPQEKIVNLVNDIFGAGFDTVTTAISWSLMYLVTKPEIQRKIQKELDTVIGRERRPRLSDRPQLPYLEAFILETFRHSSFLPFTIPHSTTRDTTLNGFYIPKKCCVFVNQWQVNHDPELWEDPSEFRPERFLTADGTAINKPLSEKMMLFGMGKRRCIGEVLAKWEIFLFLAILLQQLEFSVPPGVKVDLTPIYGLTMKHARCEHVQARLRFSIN

[3] = tested on: CYP3A4/5; test: in vitro; details: human, microsomes, pH 7.4
[4] = tested on: CYP3A4/5; test: Direct CYP3A4/5 inhibition, midazolam 1′-hydroxylation in pooled human liver microsomes; details: pH 7.4, probe midazolam 2 μM (1′-hydroxylation)
[5] = molecular target: T3, CYP2C8 (Homo sapiens, UniProt P10632); details: microsomes; for CYP2C8 activity expressed as % Vehicle Control: human, 10 min, pH 7.4
T3 sequence (P10632 1-490): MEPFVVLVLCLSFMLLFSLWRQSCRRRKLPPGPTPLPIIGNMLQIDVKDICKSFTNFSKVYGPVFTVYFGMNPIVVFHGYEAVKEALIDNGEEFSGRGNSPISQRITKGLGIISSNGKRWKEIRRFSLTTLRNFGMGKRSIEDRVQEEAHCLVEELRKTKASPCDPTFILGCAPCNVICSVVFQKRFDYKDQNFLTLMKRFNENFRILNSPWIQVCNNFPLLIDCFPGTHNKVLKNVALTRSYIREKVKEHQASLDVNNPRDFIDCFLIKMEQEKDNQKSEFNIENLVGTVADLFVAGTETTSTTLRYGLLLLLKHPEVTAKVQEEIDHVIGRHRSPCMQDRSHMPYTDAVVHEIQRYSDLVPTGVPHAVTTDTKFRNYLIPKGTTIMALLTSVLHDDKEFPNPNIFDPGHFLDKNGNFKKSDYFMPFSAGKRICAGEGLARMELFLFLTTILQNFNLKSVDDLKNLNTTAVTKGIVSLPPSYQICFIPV

[6] = molecular target: CYP2C9 (Homo sapiens, UniProt P11712); details: for CYP2C9 activity expressed as % Vehicle Control: HLM, diclofenac
Chain of CYP2C9 (P11712 whole entry): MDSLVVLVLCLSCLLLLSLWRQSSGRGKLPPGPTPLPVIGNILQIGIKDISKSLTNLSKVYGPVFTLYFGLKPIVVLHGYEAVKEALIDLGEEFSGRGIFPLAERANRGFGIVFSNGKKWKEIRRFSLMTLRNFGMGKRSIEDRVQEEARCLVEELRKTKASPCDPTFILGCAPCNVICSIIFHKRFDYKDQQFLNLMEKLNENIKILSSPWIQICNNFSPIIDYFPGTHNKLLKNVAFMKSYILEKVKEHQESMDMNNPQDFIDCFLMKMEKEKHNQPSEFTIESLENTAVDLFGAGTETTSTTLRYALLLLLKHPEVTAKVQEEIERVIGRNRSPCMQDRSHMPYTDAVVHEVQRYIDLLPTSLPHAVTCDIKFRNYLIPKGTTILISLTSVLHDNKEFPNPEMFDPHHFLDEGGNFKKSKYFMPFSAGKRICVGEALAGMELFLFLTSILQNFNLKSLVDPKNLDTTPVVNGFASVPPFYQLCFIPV

[7] = tested on: CYP3A4/5; details: microsomes
[8] = in vivo, 5 mg
[9] = molecular target: CYP2C19 (Homo sapiens, UniProt P33261); details: microsomes
Chain of CYP2C19 (P33261 whole entry): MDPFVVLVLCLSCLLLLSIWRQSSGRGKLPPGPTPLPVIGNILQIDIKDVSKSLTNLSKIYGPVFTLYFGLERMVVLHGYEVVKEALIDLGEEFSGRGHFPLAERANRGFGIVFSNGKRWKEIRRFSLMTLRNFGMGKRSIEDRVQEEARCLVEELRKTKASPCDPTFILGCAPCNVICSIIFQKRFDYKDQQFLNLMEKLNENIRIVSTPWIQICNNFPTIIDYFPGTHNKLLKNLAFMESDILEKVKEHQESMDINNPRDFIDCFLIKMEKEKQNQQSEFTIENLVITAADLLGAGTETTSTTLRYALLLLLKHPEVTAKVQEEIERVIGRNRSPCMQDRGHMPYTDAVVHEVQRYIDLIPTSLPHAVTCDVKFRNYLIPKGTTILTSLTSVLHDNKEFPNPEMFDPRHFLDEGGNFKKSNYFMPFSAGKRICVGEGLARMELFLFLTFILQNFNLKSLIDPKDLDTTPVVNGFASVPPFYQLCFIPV

[10] = tested on: CYP3A4/5; details: microsomes; remark: listed apart in the source
[11] = molecular target: CYP2D6 (Homo sapiens, UniProt P10635); details: microsomes
Chain of CYP2D6 (P10635 whole entry): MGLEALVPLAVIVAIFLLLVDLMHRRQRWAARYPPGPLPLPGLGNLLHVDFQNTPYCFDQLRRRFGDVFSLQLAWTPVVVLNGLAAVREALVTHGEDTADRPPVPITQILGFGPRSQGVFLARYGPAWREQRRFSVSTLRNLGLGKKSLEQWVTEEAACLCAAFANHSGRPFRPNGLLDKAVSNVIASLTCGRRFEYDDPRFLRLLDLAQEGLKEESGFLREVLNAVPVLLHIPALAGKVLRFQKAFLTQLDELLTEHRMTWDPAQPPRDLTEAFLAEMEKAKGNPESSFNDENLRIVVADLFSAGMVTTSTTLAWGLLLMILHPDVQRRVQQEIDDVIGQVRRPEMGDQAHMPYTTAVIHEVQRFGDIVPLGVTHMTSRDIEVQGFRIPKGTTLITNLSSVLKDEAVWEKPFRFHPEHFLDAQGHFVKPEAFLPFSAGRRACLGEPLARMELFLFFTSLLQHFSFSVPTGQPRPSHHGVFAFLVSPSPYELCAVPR

N[C@@H]1C[C@H]1c1ccccc1 (racemic) [Tranylcypromine, reference compound]
IC50 [1]: 3400 nM

Cc1nc2c([nH]1)c(=O)n(C)c(=O)n2Cc1ccco1 [Furafylline]
CYP1A2 activity expressed as % Vehicle Control ([2]; 0.01 μM): 103.9 % Vehicle Control
CYP1A2 activity expressed as % Vehicle Control ([2]; 0.1 μM): 110.2 % Vehicle Control
CYP1A2 activity expressed as % Vehicle Control ([2]; 1 μM): 88.5 % Vehicle Control
CYP1A2 activity expressed as % Vehicle Control ([2]; 10 μM): 41.0 % Vehicle Control
CYP1A2 activity expressed as % Vehicle Control ([2]; 100 μM): 10.1 % Vehicle Control

CCC(C)n1ncn(-c2ccc(N3CCN(c4ccc(OCC5COC(Cn6cncn6)(c6ccc(Cl)cc6Cl)O5)cc4)CC3)cc2)c1=O (stereo not drawn) [Itraconazole]
IC50 [3]: 30 nM
IC50 at 5 min [4]: 210 nM

CC(C)(O)c1ccccc1CC[C@@H](SCC1(CC(=O)O)CC1)c1cccc(/C=C/c2ccc3ccc(Cl)cc3n2)c1 [Montelukast, reference compound]
CYP2C8 activity expressed as % Vehicle Control ([5]; 0.001 μM): 96.0 % Vehicle Control
CYP2C8 activity expressed as % Vehicle Control ([5]; 0.01 μM): 91.3 % Vehicle Control
CYP2C8 activity expressed as % Vehicle Control ([5]; 0.1 μM): 66.2 % Vehicle Control
CYP2C8 activity expressed as % Vehicle Control ([5]; 1 μM): 13.3 % Vehicle Control
CYP2C8 activity expressed as % Vehicle Control ([5]; 10 μM): 1.3 % Vehicle Control

Nc1ccc(S(=O)(=O)Nc2ccnn2-c2ccccc2)cc1 [Sulfaphenazole, reference compound]
CYP2C9 activity expressed as % Vehicle Control ([6]; positive control 0.0025 μM): 102.1 % Vehicle Control
CYP2C9 activity expressed as % Vehicle Control ([6]; positive control 0.025 μM): 95.7 % Vehicle Control
CYP2C9 activity expressed as % Vehicle Control ([6]; positive control 0.25 μM): 47.2 % Vehicle Control
CYP2C9 activity expressed as % Vehicle Control ([6]; positive control 2.5 μM): 10.1 % Vehicle Control
CYP2C9 activity expressed as % Vehicle Control ([6]; positive control 25 μM): 1.9 % Vehicle Control

phenylcapsaicyn
Ki [2]: 340 nM
IC50 [7]: > 50000 nM
Inhibition of CYP3A4/5 in words (midazolam) [7]: no significant inhibition
IC50 ([6]; microsomes): > 50000 nM
Inhibition of CYP2C9 in words ([6]; microsomes): no significant inhibition
Cmax [8]: ~600 nM
IC50 [9]: > 50000 nM
Inhibition of CYP2C19 in words [9]: no significant inhibition
IC50 [5]: > 50000 nM
Inhibition of CYP2C8 in words [5]: no significant inhibition
IC50 [10]: > 50000 nM
Inhibition of CYP3A4/5 in words (testosterone) [10]: no significant inhibition
IC50 [1]: > 50000 nM
Inhibition of CYP2B6 in words [1]: no significant inhibition
Ki [11]: 550 nM
